In patent US12145944B2, “Imidazopyrimidines as EED inhibitors and the use thereof” (THE REGENTS OF THE UNIVERSITY OF MICHIGAN, priority 2019, dated 2024):

How the values were obtained:
EED (1-441)-His protein = molecular target: T1, EED (1-441)-His protein (Homo sapiens, UniProt O75530); assay: EED-H3K27Me3 peptide competition binding assay by AlphaScreen; conditions: EED Alpha screen binding assay; read-out: Alpha screen
T1 construct: 20 nM EED (1-441)-His protein

Pfeiffer cell line = assay: Anti-proliferative activity, Pfeiffer cell line, 7 day treatment; assay type: cell-based; conditions: Homo sapiens, Pfeiffer, 168 h, read-out: Pfeiffer Cell line (nM)
Method in brief: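 Cells seeded at 2 000-3 000 per well were treated with serially diluted compounds for 7 days at 37° C, 5% CO2. Growth was measured by WST-8 assay read at 450 nm after 1-4 h reagent incubation. Readings were normalized to DMSO-treated cells and IC50 values derived by nonlinear regression.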

[1] = test system: KARPAS422 human B cell lymphoma cell; assay: Cell proliferation, KARPAS422, 7 day treatment (WST-8); assay type: cell-based; conditions: Homo sapiens, KARPAS-422, 168 h, read-out: Karpas Cell line (nM)
Method in brief: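 Read-out was WST-8 absorbance at 450 nm after 1-4 h with reagent, taken after 7-day compound treatment (serial dilutions, 37 °C, 5% CO2) of 2 000-3 000 KARPAS422 cells per well. IC50 fitted by nonlinear regression on DMSO-normalized values.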

T1 sequence (O75530 whole entry): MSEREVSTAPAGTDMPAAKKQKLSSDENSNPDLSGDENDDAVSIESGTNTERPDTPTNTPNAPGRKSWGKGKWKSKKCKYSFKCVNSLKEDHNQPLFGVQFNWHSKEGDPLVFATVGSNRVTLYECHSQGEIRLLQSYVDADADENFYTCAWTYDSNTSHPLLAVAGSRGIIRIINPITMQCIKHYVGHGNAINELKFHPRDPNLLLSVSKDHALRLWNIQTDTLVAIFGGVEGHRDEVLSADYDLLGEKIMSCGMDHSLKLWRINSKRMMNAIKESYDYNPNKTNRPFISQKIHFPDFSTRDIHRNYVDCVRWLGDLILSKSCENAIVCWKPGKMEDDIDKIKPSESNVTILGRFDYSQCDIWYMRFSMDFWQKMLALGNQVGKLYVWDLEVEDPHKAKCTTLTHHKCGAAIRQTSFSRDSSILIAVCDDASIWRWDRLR

IC50 (EED (1-441)-His protein): 0.62 nM
IC50 [1]: 0.94 nM
Structure (SMILES): CS(=O)(=O)c1ncn2c(NCc3c(F)ccc4c3CCO4)ncc(-c3ccc(C(F)(F)F)nc3)c12 [compound 102, N-((5-fluoro-2,3-dihydrobenzofuran-4-yl)methyl)-1-(methylsulfonyl)-8-(6-(trifluoromethyl)pyridin-3-yl)imidazo[1,5-c]pyrimidin-5-amine]
IC50 (Pfeiffer cell line): 0.59 nM
